From patent publication US20240327364A1, “THERAPEUTIC TARGETING OF GPR68 TO INDUCE FERROPTOSIS” (University Of Maryland, Baltimore, priority 2023, published 2024) come the findings set out here.

One assay deals with T1, ERK5 (Homo sapiens, UniProt Q13164).
T1 construct: purchased DiscoveRx (Fremont, CA)
The experiment in a line: KinomeScan. The class given is binding. The conditions noted are these: read-out: % Control.

The next assay has as its target T2, SNARK (Homo sapiens, UniProt Q9H093).
T2 construct: purchased DiscoveRx (Fremont, CA)
The experiment in a line: KinomeScan. The class given is binding. As to conditions: read-out: % Control.

Assay [1] has as its target T3, RSK1(Kin.Dom.1-N-terminal) (Homo sapiens, UniProt Q15418).
T3 construct: RSK1(Kin.Dom.1-N-terminal); purchased DiscoveRx (Fremont, CA)
The experiment in a line: KinomeScan. The class given is binding. The conditions noted are these: read-out: % Control.

A further assay deals with T4, FLT3(K663Q) (Homo sapiens, UniProt P36888, K663Q).
T4 construct: purchased DiscoveRx (Fremont, CA)
The experiment in a line: KinomeScan. The format is binding. As to conditions: read-out: % Control.

The target of the next assay is T5, GAL2 (Homo sapiens, UniProt O43603).
T5 construct: host or cells: Chem-1 cells expressing Gα15
The experiment in a line: GPCR Profiler. The format is cell-based.

In another assay the target is CIT (Homo sapiens, UniProt O14578). The experiment in a line: KinomeScan. The class given is binding. The conditions noted are these: read-out: % Control.
The target in a further assay is T6, LATS2 (Homo sapiens, UniProt Q9NRM7).
T6 construct: purchased DiscoveRx
The experiment in a line: KinomeScan. As to conditions: read-out: % Control. The class given is binding.

The target of the next assay is T7, PIM3 (Homo sapiens, UniProt Q86V86).
T7 construct: purchased DiscoveRx (Fremont, CA)
The experiment in a line: KinomeScan. The class given is binding. The conditions noted are these: read-out: % Control.

The target in another assay is T8, STK39 (Homo sapiens, UniProt Q9UEW8).
T8 construct: purchased DiscoveRx (Fremont, CA)
The experiment in a line: KinomeScan. The class given is binding. As to conditions: read-out: % Control.

The target in the next assay is T9, FLT1 (Homo sapiens, UniProt P17948).
T9 construct: purchased DiscoveRx (Fremont, CA)
The experiment in a line: KinomeScan. The class given is binding. The conditions noted are these: read-out: % Control.

In a further assay the target is T10, MAP3K15 (Homo sapiens, UniProt Q6ZN16).
T10 construct: purchased DiscoveRx (Fremont, CA)
The experiment in a line: KinomeScan. The format is binding. The conditions noted are these: read-out: % Control.

For the next assay, the target named is T11, GCGR (Homo sapiens, UniProt P47871).
T11 construct: host or cells: Chem-1 cells expressing Gα15
The experiment in a line: GPCR Profiler. The format is cell-based.

For the next assay, the system named is RKO. The experiment in a line: Cell Titer-Glo viability, Colorectal adenocarcinoma. The class given is cell-based. The protocol: (§1) OGM2 kills wide variety of cancer cell types. Cell sensitivity can be classified in to Very Sensitive (LC50<2 μM), Sensitive (LC50=2 to 10 μM), Mildly Sensitive (LC50>10 μM), and Refractory (no killing at 10 μM). The listed established cell were incubated with OGM2 at 2 μM or 10 μM for 72 hours under standard cell culture conditions, and relative cell number was assessed using Cell Titer-Glo Luminescent Cell Viability Assay (Promega™) following the manufacturer's instructions. Luminescence was determined using a Cytation 5 reader and Gen5 software package (BioTek™).
(§2) Cancer cells, which are very sensitive to killing by OGM2 (LCs <2 μM), with reported mRNA expression of GPR68 and the related proton sensing receptor GPR4. LC50's (concentrations causing 50% lethality) were determined using CellTiter-Glo (Promega™, G7570). Cells were plated in 12-well plates (CELLTREAT Scientific Products, 229112) in 1 ml of DMEM with high glucose, GlutaMAX, HEPES, or RPMI 1640 with Penicillin-Streptomycin (ThermoFisher™, 10564029, 11875119 and 15140122) and 10% FBS. Cells were incubated overnight at 37° C. in 5% CO2. Then 1 mL of fresh media was added with DMSO, OGM, or positive control (Erastin; APExBIO Technology, LLC, B1524) and cells incubated for 3 days. On the third day, all media was removed, cells were rinsed with 1×PBS, PBS was removed, and 200 μL of 1× Passive Lysis Buffer (Promega™, E1941) was added to each well. […]. Subsequently, 20 μL of lysate was added to 100 μL CellTiter-Glo™ reagent on a LUMITRAC 200 plate (Greiner™ bio-one, 82050-726). Plates were briefly spun down and read on a GloMax-Multi Detection System (Promega™).
(§3) The cells listed in the tables above were incubated with OGM2 at 2 μM or 10 μM for 72 hours under standard cell culture conditions, and relative cell number was assessed using Cell Titer-Glo Luminescent Cell Viability Assay (Promega™) following the manufacturer's instructions. Luminescence was determined using a Cytation 5 reader and Gen5 software package (BioTek™). RNA expression of GPR68 and GPR4 in the corresponding cancer cell lines are listed, according to the publicly available The Human Protein Atlas version 22.0 and Ensembl version 103.38 (see proteinatlas.org). The consensus normalized expression value (“nTPM”=normalize transcript per million) was calculated as the maximum nTPM value for each gene in the two data sources.

The test system of the next assay is HCT 116. The description is as above. The format is cell-based. As to conditions: 72 hours. The procedure:
as §1, §2, §3

Another assay concerns A549. The experiment in a line: Liperfluo lipid peroxidation. The format is cell-based, human. As to conditions: OGM2 and ionizing radiation. The procedure: Where appropriate, ANOVA, or student's T-test were conducted in PRISM. Chi squared T(X) was used for Liperfluo analysis. A value T(X)>4 implies that the two distributions are different with a p<0.01 (99% confidence). For drug interaction and therapeutic interaction, the coefficient of drug interaction (CDI) was calculated as follows: CDI=AB/(A×B). According to the impact of each group, AB is the value of combined treatment and A or B is the value of the single agent group to control group.
Radiation, like OGM2, induces lipid peroxidation in addition to DNA damage. OGM was tested for its ability to sensitize lung and pancreatic cancers to radiation induced lipid peroxidation and ferroptosis. Cells were incubated at 37° C. in 5% CO2 in […] DMEM with DMSO, OGM2, or Erastin for 3 days. Then 2.5 μM Liperfluo in 3 ml fresh media was added and cells were incubated at 37° C. in 5% CO2 for 1 hour. Cells were then trypsinized, pelleted, and resuspended in cell sorting media (1% BSA and 1 mM EDTA in PBS pH 7.4). A BD LSR II was used to record Ten thousand events and the data processed with FlowJo v10.8. […] All treatments were highly significant with Chi-squared >4 indicating a p<0.01.

For the next assay, the system named is PANC02. The experiment in a line: Scratch migration. The class given is cell-based. As to conditions: 10 μM OGM2, 24 hours. The procedure:
In a second study. PANC02 pancreatic cells plated and grown to confluence. Using a P200 tip, cells were denuded and allowed to migrate for 24 hours in DMSO or 10 μM OGM2 and imaged.

Like-named read-outs stand apart in the source and are kept apart here.

T5 sequence (O43603 whole entry): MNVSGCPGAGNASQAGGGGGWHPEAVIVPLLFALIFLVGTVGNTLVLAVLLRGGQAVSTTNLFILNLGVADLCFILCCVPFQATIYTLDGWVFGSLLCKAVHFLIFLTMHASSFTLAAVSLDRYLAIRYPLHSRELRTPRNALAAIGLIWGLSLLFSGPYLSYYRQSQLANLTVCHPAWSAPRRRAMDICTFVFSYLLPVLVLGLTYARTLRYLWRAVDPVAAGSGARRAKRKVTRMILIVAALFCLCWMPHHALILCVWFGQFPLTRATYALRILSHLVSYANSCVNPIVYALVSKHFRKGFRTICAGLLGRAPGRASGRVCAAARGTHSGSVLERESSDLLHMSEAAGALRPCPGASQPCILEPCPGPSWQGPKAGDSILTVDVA
T11 sequence (P47871 26-477): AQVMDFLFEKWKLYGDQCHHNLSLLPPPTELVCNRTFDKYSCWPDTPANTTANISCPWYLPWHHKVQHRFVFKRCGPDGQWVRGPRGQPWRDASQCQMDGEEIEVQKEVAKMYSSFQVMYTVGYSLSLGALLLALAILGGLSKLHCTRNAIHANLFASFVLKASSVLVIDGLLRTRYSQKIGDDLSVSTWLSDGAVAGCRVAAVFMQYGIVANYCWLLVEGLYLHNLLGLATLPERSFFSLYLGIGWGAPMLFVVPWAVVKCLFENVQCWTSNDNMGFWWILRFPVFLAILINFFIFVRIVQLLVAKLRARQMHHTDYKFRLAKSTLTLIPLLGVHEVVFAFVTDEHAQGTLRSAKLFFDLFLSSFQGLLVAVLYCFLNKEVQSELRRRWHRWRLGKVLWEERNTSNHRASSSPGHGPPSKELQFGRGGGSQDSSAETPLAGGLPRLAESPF
T9 sequence (P17948 27-1338): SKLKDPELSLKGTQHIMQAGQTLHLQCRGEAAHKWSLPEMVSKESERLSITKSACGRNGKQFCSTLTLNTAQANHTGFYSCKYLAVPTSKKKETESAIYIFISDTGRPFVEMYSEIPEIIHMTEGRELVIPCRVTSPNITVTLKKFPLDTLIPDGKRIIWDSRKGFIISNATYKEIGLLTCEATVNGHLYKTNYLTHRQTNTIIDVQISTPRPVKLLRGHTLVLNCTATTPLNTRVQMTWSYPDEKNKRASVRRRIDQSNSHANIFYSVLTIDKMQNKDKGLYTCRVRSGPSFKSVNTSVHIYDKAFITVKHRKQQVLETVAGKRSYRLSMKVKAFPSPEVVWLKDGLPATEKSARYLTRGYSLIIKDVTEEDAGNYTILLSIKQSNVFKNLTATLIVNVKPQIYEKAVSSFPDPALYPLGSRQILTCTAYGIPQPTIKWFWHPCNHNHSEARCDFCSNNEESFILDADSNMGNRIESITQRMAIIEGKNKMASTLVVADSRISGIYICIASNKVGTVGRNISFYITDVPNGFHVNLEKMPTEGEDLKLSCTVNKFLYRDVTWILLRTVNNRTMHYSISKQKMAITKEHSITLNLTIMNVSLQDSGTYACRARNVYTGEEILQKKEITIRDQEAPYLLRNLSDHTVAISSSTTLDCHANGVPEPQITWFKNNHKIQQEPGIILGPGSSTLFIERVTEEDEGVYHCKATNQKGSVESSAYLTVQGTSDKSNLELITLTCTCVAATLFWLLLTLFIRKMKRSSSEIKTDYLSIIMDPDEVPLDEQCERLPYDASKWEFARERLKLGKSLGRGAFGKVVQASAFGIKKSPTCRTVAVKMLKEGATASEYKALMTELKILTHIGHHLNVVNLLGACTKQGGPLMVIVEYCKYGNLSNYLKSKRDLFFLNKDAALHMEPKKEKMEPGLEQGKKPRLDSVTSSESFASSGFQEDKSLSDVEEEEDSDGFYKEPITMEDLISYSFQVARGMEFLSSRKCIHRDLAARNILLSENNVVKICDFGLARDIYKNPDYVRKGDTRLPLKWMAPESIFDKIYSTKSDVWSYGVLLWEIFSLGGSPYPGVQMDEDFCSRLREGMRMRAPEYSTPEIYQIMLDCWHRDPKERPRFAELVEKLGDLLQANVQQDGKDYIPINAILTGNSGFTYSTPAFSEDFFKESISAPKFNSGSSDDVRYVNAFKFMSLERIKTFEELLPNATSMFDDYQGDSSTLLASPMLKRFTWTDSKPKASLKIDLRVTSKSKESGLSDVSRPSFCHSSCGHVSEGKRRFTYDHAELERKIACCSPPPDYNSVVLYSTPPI
T2 sequence (Q9H093 whole entry): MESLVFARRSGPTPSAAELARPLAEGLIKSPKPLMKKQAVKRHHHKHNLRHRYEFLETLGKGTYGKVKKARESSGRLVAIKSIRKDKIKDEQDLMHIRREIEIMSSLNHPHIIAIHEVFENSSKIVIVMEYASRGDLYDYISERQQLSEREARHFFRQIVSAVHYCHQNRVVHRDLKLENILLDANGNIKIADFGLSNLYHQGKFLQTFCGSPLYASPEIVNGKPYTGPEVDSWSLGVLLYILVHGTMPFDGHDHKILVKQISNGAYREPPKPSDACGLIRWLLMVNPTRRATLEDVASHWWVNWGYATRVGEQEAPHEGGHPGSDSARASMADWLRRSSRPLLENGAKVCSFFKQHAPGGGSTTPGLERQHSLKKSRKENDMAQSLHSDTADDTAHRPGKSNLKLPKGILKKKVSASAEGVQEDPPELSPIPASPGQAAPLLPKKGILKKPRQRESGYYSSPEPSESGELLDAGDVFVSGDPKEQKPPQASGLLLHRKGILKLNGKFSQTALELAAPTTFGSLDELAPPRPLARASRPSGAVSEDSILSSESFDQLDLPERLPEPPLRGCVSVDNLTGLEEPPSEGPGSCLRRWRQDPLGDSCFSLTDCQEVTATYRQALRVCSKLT
T6 sequence (Q9NRM7 whole entry): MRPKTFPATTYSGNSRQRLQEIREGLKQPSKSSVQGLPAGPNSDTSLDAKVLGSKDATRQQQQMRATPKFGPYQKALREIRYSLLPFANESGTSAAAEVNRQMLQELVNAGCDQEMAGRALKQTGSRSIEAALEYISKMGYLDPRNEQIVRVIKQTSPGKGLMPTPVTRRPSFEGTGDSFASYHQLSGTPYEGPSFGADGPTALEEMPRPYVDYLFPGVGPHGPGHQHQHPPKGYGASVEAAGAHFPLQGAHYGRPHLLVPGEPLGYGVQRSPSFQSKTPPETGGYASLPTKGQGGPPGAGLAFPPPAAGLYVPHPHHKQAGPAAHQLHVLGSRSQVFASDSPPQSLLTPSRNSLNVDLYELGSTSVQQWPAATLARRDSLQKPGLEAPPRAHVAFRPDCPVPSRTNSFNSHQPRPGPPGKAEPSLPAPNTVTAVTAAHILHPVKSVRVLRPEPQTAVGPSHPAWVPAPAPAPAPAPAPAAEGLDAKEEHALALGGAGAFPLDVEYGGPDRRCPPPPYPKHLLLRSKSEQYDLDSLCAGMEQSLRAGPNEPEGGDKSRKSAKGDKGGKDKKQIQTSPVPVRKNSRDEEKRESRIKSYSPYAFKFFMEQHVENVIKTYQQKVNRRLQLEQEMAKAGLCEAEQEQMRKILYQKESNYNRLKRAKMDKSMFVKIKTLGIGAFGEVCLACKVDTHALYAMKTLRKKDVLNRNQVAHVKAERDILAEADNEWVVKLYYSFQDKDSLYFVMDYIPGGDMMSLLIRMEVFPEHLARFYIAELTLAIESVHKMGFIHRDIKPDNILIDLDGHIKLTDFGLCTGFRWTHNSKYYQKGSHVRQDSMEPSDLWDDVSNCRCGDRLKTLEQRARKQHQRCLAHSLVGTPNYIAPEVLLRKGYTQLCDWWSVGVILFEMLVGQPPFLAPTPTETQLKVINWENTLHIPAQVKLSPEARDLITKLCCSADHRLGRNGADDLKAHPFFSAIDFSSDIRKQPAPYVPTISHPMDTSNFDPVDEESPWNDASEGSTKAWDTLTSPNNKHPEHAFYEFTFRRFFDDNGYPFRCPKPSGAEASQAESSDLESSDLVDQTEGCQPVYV
T3 sequence (Q15418 62-321 limits assumed): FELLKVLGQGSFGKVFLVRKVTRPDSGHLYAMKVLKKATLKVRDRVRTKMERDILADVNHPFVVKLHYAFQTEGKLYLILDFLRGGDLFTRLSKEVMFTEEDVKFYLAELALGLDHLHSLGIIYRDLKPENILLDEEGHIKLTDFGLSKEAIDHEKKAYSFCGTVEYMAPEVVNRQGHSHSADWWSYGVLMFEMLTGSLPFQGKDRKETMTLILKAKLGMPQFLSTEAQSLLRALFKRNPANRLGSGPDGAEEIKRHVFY

As for `CCc1ccc2c(c1)C1(NN=C(c3cccc4ccccc34)S1)C(=O)N2` (stereo not drawn) [OGM1, 5-ethyl-5′-naphthalen-1-ylspiro[1H-indole-3,2′-3H-1,3,4-thiadiazole]-2-one], the remaining binding at 10 µM on ERK5 was determined as 89%; on SNARK, 100%; in assay [1], 78%; on FLT3(K663Q) it was 100%; on CIT, 94%; on LATS2, 100%. The remaining binding at 10 µM turned out to be 73% on PIM3, 59% at STK39, 100% on FLT1 and 100% at MAP3K15. Besides, the Antagonism at GAL2 (10 uM) was determined as 1; on GCGR (10 uM), 6.1. Further, the values for the Agonism on GAL2 (12.5 uM) and on GCGR (12.5 uM) were 0.4 and −0.1, respectively.
For the compound `CCc1ccc2c(c1)C1(NN=C(c3ccccc3)S1)C(=O)N2` (stereo not drawn) [OGM2], the Class result in the assay with RKO was “Mildly”; in the assay with RKO (Table 13) it was “Low”. Also, the “% Survival 2 μM OGM” value in the assay with RKO (72 hours) is given as 92.4%; in the assay with HCT 116, 44.5%. Moreover, the “% Survival 10 μM OGM” value stood at 57.6% with RKO (72 hours) and 32.7% in the assay with HCT 116. For the same compound, the CC50 was above 10 µM in the assay with RKO (Homo sapiens, RKO, 72 hours, read-out: LC50 (the source's name)) and below 2 µM in the assay on HCT 116 (Homo sapiens, HCT-116, read-out: LC50 (the source's name)). Moreover, in the assay with A549, the “CDI, lipid peroxidation” value is given as below 0.232. Further, the migration result with PANC02 is given as “significantly reduced migration”.
